We go through three compounds from ChEMBL document CHEMBL5729192, “CD73 inhibitors” (2022).

The target of the assay is 5'-nucleotidase (Homo sapiens, UniProt P21589). The assay is described as follows: Biochemical Assay: Assay Reaction ConditionsAssay Volume: 70 μlReaction Volume: 50 μlCD73: 0.3208 nMAMP: 15 μMAssay Buffer: 2 5 mM Tris-HCL, pH 7.4, 0.01% Brij-35, 0.01% BSA, 5 mM MgCl2Assay Procedure:Used 384 clear plate.Made dose titration of testing compounds in assay buffer, 10 points ½ log titrations in duplicates starting at 100 μM.Added 25 μl of CD73 to each well for a final concentration of 320 pM.Incubated at RT for 15 min.Added 25 μl of AMP to each well for a final concentration of 15 μM.Incubated at RT for 10 min.Added 10 μl of Malachite Green Reagent A, incubate at RT for 10 min.Added 10 μl of Malachite Green Reagent B, incubate at RT for 45 min.Read the Absorbance on Envision plate reader using excitation filter: Cy5 620 nM.

The IC50 is the concentration that inhibits the measured activity by half. High values mean weaker potency, low ones greater potency.

Sequence of 5'-nucleotidase (P21589 whole entry): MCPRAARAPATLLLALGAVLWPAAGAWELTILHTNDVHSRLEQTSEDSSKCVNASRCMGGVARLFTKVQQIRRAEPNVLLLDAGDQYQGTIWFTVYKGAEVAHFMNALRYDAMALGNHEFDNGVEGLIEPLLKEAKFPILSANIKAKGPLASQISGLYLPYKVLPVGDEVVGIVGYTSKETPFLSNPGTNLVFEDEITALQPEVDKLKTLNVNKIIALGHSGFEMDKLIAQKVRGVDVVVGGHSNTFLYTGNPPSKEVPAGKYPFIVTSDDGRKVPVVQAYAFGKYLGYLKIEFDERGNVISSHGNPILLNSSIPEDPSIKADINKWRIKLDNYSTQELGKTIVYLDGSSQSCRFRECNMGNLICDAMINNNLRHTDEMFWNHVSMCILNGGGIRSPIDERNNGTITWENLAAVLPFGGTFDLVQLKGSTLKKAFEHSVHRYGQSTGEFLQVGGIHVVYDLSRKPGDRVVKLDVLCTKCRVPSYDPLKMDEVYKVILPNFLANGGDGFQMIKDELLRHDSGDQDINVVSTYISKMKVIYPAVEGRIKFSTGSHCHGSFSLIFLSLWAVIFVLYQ

`CNc1nc(Cl)nc2c1cnn2[C@@H]1O[C@H](COCP(=O)(O)O)[C@@H](O)[C@H]1O` registered an IC50 of less than 500 nM.

The compound `C[C@]1(O)C[C@@H](Nc2nc(Cl)nc3c2cnn3[C@@H]2O[C@H](COCP(=O)(O)O)[C@@H](O)[C@H]2O)C1` yielded an IC50 of less than 500 nM.

`O=P(O)(O)COC[C@H]1O[C@@H](n2ncc3c(NCc4cccc(Cl)c4Cl)nc(Cl)nc32)[C@H](O)[C@@H]1O` registered an IC50 of less than 500 nM.
